Key:
A549 cell lines = assay: MTT proliferation assay, A549 cells; type: cell-based; conditions: Homo sapiens, A549 (A549-Luc) cells
Protocol: The A549 (human lung carcinoma) cell line was grown in a Dulbecco’s Modified Eagle Medium (DMEM) containing 10% fetal bovine serum (FBS) and 100 units/mL penicillin–100 μg/mL streptomycin and 2 mM L-glutamine for cytotoxicity experiments. Cells were maintained at 37 °C temperature conditions containing 5% CO2. When the cells covered 95–98% of the flask, they were passaged.
The 3-(4,5-dimethylthiazol-2-yl)-2,5-diphenyltetrazolium bromide (MTT) proliferation assay was performed to evaluate the cytotoxicity of the 3 and 4 compounds. Cells were seeded at a density of 5 × 10^4 cells/cm^2 and incubated at 37 °C in 95% air, 5% CO2 environments for 24 h. Substances 3 and 4 were first dissolved in DMSO, then dilutions were prepared by dispersing them in the DMEM cell growth medium. The dose intervals of substances 3 and 4 were prepared as 400, 200, 100, 50, and 25 μM. The dose intervals of substances 3 and 4 were placed on a 24-well cell culture plate and then incubated for 24 h. After incubation, the medium was removed and replaced with the MTT-containing medium. Plates were incubated for an additional 4 h at 37 °C. MTT medium was removed, and 100 μL of DMSO was added to dissolve the formazan crystals. The absorbance was determined using a plate reader at a wavelength of 540 nm. IC50 values for 24, 48, and 72 h were calculated using GraphPad Prism5 software (GraphPad, San Diego, CA).
Our group recently determined that isoindole-1,3-dione derivatives are potential tyrosine kinase enzyme inhibitors and have antiproliferative effects against some cell lines according to MTT test results. It has been confirmed that the antiproliferative effects vary according to the nitrogen (N) atom and the groups attached to the ring. In addition, some compounds are known to exert cytotoxic effects against more than one cell line. […] Benzyl derivatives of isoindole-1,3-dione 3 and 4 were synthesized according to the method used in our previous work.[9] First, the cytotoxic effects of both compounds against A549-Luc cells were examined. IC50 values of those drugs were calculated using the MTT activity assay. Cell viability of A549-Luc cells using two compounds was followed for 24, 48, and 72 h of incubation time. According to the results of these experiments, the optimum incubation period was determined as 48 h.

CD1 mice = conditions: in vivo
[1] = 28 day subacute toxicity study, weight change

## CC(=O)O[C@@H]1[C@@H]2C(=O)N(Cc3ccccc3)C(=O)[C@@H]2C=C[C@H]1Cl [compound 4]
A549 cell lines; 24 h
  IC50: 349 µM
A549 cell lines; 48 h
  IC50: 116 µM
A549 cell lines; 72 h
  IC50: 83.6 µM

## CC(=O)O[C@H]1C=C[C@H](OC(C)=O)[C@H]2C(=O)N(Cc3ccccc3)C(=O)[C@H]21 [compound 3]
CD1 mice; both, CD1, mouse, 28 day
  cardiac muscle: increase in the connective tissue between the muscle fibers: higher level compared to the 4 groups
CD1 mice; mouse
  cardiac muscle: discus intercalaris: moderate/high level of erasure
  kidney: severity of histopathological findings, compounds compared: more severe
  liver: severity of histopathological findings, compounds compared: more severe
A549 cell lines; 24 h
  IC50: 266 µM
A549 cell lines; 48 h
  IC50: 114 µM
A549 cell lines; 72 h
  IC50: 68.8 µM
[1]; 1st dose (200 μM) female, 7d
  Weight, group average: 26.732 G
[1]; 1st dose (200 μM) female, 14d
  Weight, group average: 27.624 G
[1]; 1st dose (200 μM) female, 21d
  Weight, group average: 26.9 G
[1]; 1st dose (200 μM) female, 28d
  Weight, group average: 26.61 G
[1]; 1st dose (200 μM) female, initial
  Weight, group average: 26.516 G
[1]; 1st dose (200 μM) male, 7d
  Weight, group average: 34.102 G
[1]; 1st dose (200 μM) male, 14d
  Weight, group average: 35.088 G
[1]; 1st dose (200 μM) male, 21d
  Weight, group average: 34.89 G
[1]; 1st dose (200 μM) male, 28d
  Weight, group average: 35.932 G
[1]; 1st dose (200 μM) male, initial
  Weight, group average: 33.35 G
[1]; 2nd dose (100 μM) female, 7d
  Weight, group average: 27.582 G
[1]; 2nd dose (100 μM) female, 14d
  Weight, group average: 27.204 G
[1]; 2nd dose (100 μM) female, 21d
  Weight, group average: 27.848 G
[1]; 2nd dose (100 μM) female, 28d
  Weight, group average: 28.604 G
[1]; 2nd dose (100 μM) female, initial
  Weight, group average: 27.71 G
[1]; 2nd dose (100 μM) male, 7d
  Weight, group average: 32.196 G
[1]; 2nd dose (100 μM) male, 14d
  Weight, group average: 33.33 G
[1]; 2nd dose (100 μM) male, 21d
  Weight, group average: 33.42 G
[1]; 2nd dose (100 μM) male, 28d
  Weight, group average: 34.952 G
[1]; 2nd dose (100 μM) male, initial
  Weight, group average: 32.388 G
[1]; 3rd dose (50 μM) female, 7d
  Weight, group average: 23.104 G
[1]; 3rd dose (50 μM) female, 14d
  Weight, group average: 23.97 G
[1]; 3rd dose (50 μM) female, 21d
  Weight, group average: 24.27 G
[1]; 3rd dose (50 μM) female, 28d
  Weight, group average: 25.092 G
[1]; 3rd dose (50 μM) female, initial
  Weight, group average: 24.338 G
[1]; 3rd dose (50 μM) male, 7d
  Weight, group average: 35.528 G
[1]; 3rd dose (50 μM) male, 14d
  Weight, group average: 36.106 G
[1]; 3rd dose (50 μM) male, 21d
  Weight, group average: 36.43 G
[1]; 3rd dose (50 μM) male, 28d
  Weight, group average: 38.348 G
[1]; 3rd dose (50 μM) male, initial
  Weight, group average: 35.076 G

Reference: paper PMC10077444, “Evaluation of In Vivo Biological Activity Profiles of Isoindole-1,3-dione Derivatives: Cytotoxicity, Toxicology, and Histopathology Studies” (ACS Omega, 2023)
